Measurements published in patent publication US7501454B2, “Cyclohexenone compounds from Antrodia camphorata to treat autoimmune diseases” (Golden Biotechnology Corporation, priority 2007, dated 2009).

Tests used:
female NZB/WF1 SLE mice [1] = assay: Titers of anti-dsDNA antinuclear antibodies in plasma of female NZB/WF1 SLE mice (Mouse Anti-dsDNA IgG ELISA kit); type: in vivo
Procedure: (§1) Female NZB/WF1 mice spontaneously develop human SLE-like syndromes, such as generation of antinuclear autoantibodies, proteinuria, and renal toxicity to cause death. The disease is more severe in female mice than in male mice; the morbidity of female mice is also higher than that of male mice. Therefore, female NZB/WF1 mice were used for screening anti-SLE drugs in this study.
(§2) Thirty female NZB/WF1 mice (purchased from Jackson Lab, USA) between 12-24 weeks of age were analyzed biweekly to determine proteinuria levels, monthly to assess the titers of antinuclear autoantibody (ANA). The increased titers of ANA and positive response implicated that female NZB/WF1 mice were going to develop SLE and were ready for grouping. At 22 weeks of age, the animals showing the abovementioned syndromes were randomly divided into 3 groups (10 mice per group, water was administered to negative control group, steroid was given to positive control group, and cyclohexenone compounds of Antrodia camphorata was administered to experiment group), and the start time for the experiment was set as week zero. In addition, ten B6 mice (purchased from National Laboratory Animal Center, Taiwan) without SLE syndrome were normal mice served as blank group.
(§3) The blank group in Table 1 was B6 mice of no SLE syndrome, which received no treatment and normal diet for natural growth. NZB/WF1 female mice that were able to express SLE syndromes were served in negative control and positive control groups. Mice in the former group received normal water; in the latter were orally medicated with 1.25 mg/kg of prednisolone, the SLE drug. Mice in the experiment group were orally medicated with 50 mg/kg of cyclohexenone compounds from Example 1. The mice were fed with the abovementioned substances once per day starting at 23 weeks of age, and this period of time was referred to as the first week of this experiment. […]
The titers of dsDNA antinuclear antibodies were determined in this study to assess the effects of cyclohexenone compounds from Antrodia camphorata on SLE mice. […]

female NZB/WF1 SLE mice [2] = assay: Changes of proteinuria in female NZB/WF1 SLE mice (Bio-Rad protein assay of urine); type: in vivo; conditions: for proteinuria level: negative control 246 mg/dl
Procedure: as §1, §2
as §3, with “1.” for “1. The mice were fed with the abovementioned substances once per day starting at 23 weeks of age, and this period of time was referred to as the first week of this experiment.”
SLE patients develop renal inflammation and damage, which cause leakage of protein from kidney into the fluid. […] Ten μl of urine was assayed with Bio-Rad Protein Assay Dye Reagent Concentrate (Bio-Rad Laboratories, USA) and read under […] with an ELISA analyzer to determine the protein concentration with a standard curve.

SMILES | titers of anti-dsDNA antinuclear antibodies compared with negative group (female NZB/WF1 SLE mice [1]; experiment group, 50 mg/kg oral once per day, during 8 weeks of experiment) | titer of antinuclear antibodies decreased to (female NZB/WF1 SLE mice [1]; experiment group, 50 mg/kg oral once per day, week 8) [%] | proteinuria level (female NZB/WF1 SLE mice [2]; experiment group, 50 mg/kg oral once per day, after 6 weeks of experiment) [mg/dL] | fold increase of proteinuria level versus before experiment (female NZB/WF1 SLE mice [2]; experiment group, 50 mg/kg oral once per day, after 6 weeks, negative control 2.76-fold) [fold] | titer of anti-dsDNA antinuclear antibodies decreased to (female NZB/WF1 SLE mice [1]; positive group, prednisolone 1.25 mg/kg oral once per day, week 8) | proteinuria level (female NZB/WF1 SLE mice [2]; positive control group, prednisolone 1.25 mg/kg oral once per day, after 6 weeks) [mg/dL]
COC1=C(OC)C(O)C(C/C=C(\C)CC/C=C(\C)CCC=C(C)C)C(C)C1=O (stereo not drawn) [4-hydroxy-2,3-dimethoxy-6-methyl-5(3,7,11-trimethyl-dodeca-2,6,10-trienyl)-cyclohex-2-enone] | significantly lower titers of anti-dsDNA antinuclear antibodies than those in the negative group | 34 | 118.2 | 1.3 | – | –
C[C@]12C=CC(=O)C=C1CC[C@@H]1[C@@H]2[C@@H](O)C[C@@]2(C)[C@H]1CC[C@]2(O)C(=O)CO [prednisolone, reference compound] | – | – | – | – | around 50% | 32.6
